# Test results from ChEMBL document CHEMBL3244148, “Agonist effects of beta-phenethylamines on the noradrenergic cyclic adenosine 3',5'-monophosphate generating system in rat limbic forebrain. Stereoisomers of p-hydroxynorephedrine” (J Med Chem, 1977).
# Structures can show the parent of a compound that is named as a salt. Calls of active or inactive are those of the source. The calls are words filed in the database; no cut-off is given here.
# Species on record: Rattus norvegicus
# Assay: Agonist activity at noradrenergic receptor in Sprague-Dawley rat limbic forebrain assessed as increase in c-AMP production up to 10^-4 M incubated for 10 mins
# Assay type: tissue-based
# Details: Limbic system
row,SMILES,Activity
1,C[C@H](N)Cc1ccc(O)cc1,inactive
2,C[C@H](N)[C@H](O)c1ccc(O)cc1,inactive
3,C[C@H](N)[C@H](O)c1cccc(O)c1,inactive
4,NCCc1ccc(O)c(O)c1,inactive
5,C[C@H](N)Cc1ccccc1,inactive
6,C[C@H](N)[C@@H](O)c1ccc(O)cc1,inactive
7,NCC(O)c1ccc(O)cc1 (racemic),inactive

# System: not listed separately
# Assay: Agonist activity at noradrenergic receptor in Sprague-Dawley rat limbic forebrain assessed as increase in c-AMP production incubated for 10 mins
# Details: not given
row,SMILES,EC50
1,CNC[C@H](O)c1ccc(O)c(O)c1 [EPINEPHRINE BITARTRATE],5 µM
2,CNC[C@@H](O)c1ccc(O)c(O)c1,> 100 µM
3,CC(N)C(O)c1ccc(O)c(O)c1 (racemic) [NORDEFRIN HYDROCHLORIDE],10 µM
4,CC(C)NC[C@H](O)c1ccc(O)c(O)c1,5 µM
